Laboratory results from US11020360B2, “Methods, compounds, compositions and vehicles for delivering 3-amino-1-propanesulfonic acid” (Bellus Health, Inc., priority 2006, dated 2021).
Values joined by “and” are separate entries in the source; they are usually repeats but may differ in a detail not shown here. Equal values may be shown once.

Tests used:
[1] = Previous metabolic stability studies of 3APS; type: in vitro ADME
Description: Those studies include: 3APS metabolic stability in pooled human hepatocytes, human, rat and dog liver microsomes, human intestinal microflora, pooled human liver cytosol, and human arylamine N-acetyltransferase (See Examples 4 and 5).

[2] = Single oral and IV administration of 14C-3APS to rats; type: in vivo, male Sprague-Dawley rats; settings: for AUC0-∞ / AUC(0-inf): 100 mg/kg 14C-3APS, rats, 100 mg/kg; for AUC(0-inf): male, Sprague-Dawley, rat, plasma
Protocol: The purpose of this study was to investigate the absorption, metabolism and excretion profiles of ^14C-3APS following a single intravenous bolus and oral administration to rats. Thirty-six male Sprague-Dawley rats received a single 100 mg/kg (˜50 μCi/animal) dose of ^14C-3APS by an IV bolus injection (water or isotonic saline solution) and an additional 36 male rats received the same dose level by oral gavage (in water). Blood, urine, feces, brain and CSF samples were collected for up to 72 hr following dose administration. Plasma, urine, brain and CSF concentrations of 3APS and 2-carboxyethanesulfonic acid (3APS major metabolite) were measured using LC and MS/MS detection method. Plasma, urine, feces, brain and CSF samples were analyzed for total radioactivity using appropriate sample preparation procedures and scintillation counting.

human hepatocyte (HepG2) = test: Incubation of 3APS in human hepatocyte (HepG2) culture media; type: in vitro ADME; settings: after incubation of 3APS in HepG2 culture media
Protocol: (§1) In another in vitro model employing organotypic hippocampal slice culture, the conversion of 3APS to 2-carboxyethanesulfonic acid was time-dependent. More than 60% of 3APS was converted to 2-carboxyethanesulfonic acid after 3-day incubation in the culture media. 2-carboxyethanesulfonic acid was also detected after incubation of 3APS in human hepatocyte (HepG2) culture media.

[3] = Absorption, excretion and plasma kinetics of 14C-3APS in humans; type: in vivo, human
Description: Following the identification of 3APS metabolites, plasma and urine samples from this human AME study were reanalyzed for 3APS and 3APS metabolite (2-carboxyethanesulfonic acid, 3-hydroxy-1-propanesulfonic acid and 3-acetylamino-1-propanesulfonic acid) concentrations using qualified HPLC and MS/MS methods to determine the metabolic profile of ^14C-3APS in human.

[4] = Metabolic profiling of 14C-3APS in rats; type: in vivo, male Sprague-Dawley rats
Protocol: (§2) Three single dose studies were conducted in mice, rats and dogs to determine the metabolic profile of ^14C-3APS in plasma, urine and feces. In the first study, twenty-seven male CD-1 mice received a single dose of 100 mg/kg (20 μCi/animal) of ^14C-3APS by oral gavage. Blood samples (3 animals/time point) were collected for 12 hr following drug administration while urine and feces (3 animals/time point) samples were collected for 96 hr. In the second study, eight male Sprague-Dawley rats received a single dose of 100 mg/kg (50 μCi/animal) of ^14C-3APS by oral gavage while in the third study, three male Beagle dogs received a single dose of 100 mg/kg (30 μCi/kg) of ^14C-3APS by oral gavage. For the rat and dog studies, blood samples were collected for 24 hr following drug administration while urine and feces samples were collected for 72 hr. All samples were analyzed for total radioactivity using appropriate sample preparation procedures and scintillation counting. Plasma and urine samples were also analyzed for 3APS and 3APS metabolites (2-carboxyethanesulfonic acid, 3-hydroxy-1-propanesulfonic acid and 3-acetylamino-1-propanesulfonic acid) concentrations using qualified HPLC and MS/MS methods.

[5] = Single oral, intravenous and portal administration of 3APS in rats; type: in vivo, male Sprague-Dawley rats
Protocol: The purpose of this study was to compare the pharmacokinetic profile of 3APS following a single dose administration either orally, intravenously or into the portal vein to male Sprague-Dawley rats. The oral, intravenous and portal routes of administration were selected to determine the intestinal and hepatic first-pass effects in the rat. Three groups of 4 male Sprague-Dawley rats were assigned to receive a single dose of 250 mg/kg 3APS by different routes of administration. One group received 3APS as an IV bolus administration (in water or isotonic saline solution), one group by oral gavage (in water) and the last group via a catheter into the portal vein (in water or isotonic saline solution). Blood samples were collected for 24 hours following dose administration. Plasma concentrations of 3APS and 2-carboxyethanesulfonic acid (the major metabolite of 3APS) were determined using LC and MS/MS method.

[6] = PK brain and plasma levels of oral Compound A2 and 3-APS in mice; type: in vivo; settings: oral 0.18 mmol/kg
Protocol: Compounds A2 and 3-aminopropanesulfonic acid were tested for pharmacokinetic parameters in mice. Parmacokinetic parameters (Cmax, Tmax, T½, AUC) are evaluated for 3APS after administration of a molar equivalent of each compound. Blood samples (approximately 1 ml) and brain samples are collected from each of 3 animals at time points 5, 15, 30 minutes, 1, 2, 4, 6, 12, and 24 hours. […] A 2-fold increase in plasma concentration (Cmax) of 3-APS was observed when orally administering Compound A2 compared to 3-APS.

[7] = tested on: organotypic hippocampal slice culture; test: In vitro metabolism of 3APS in organotypic hippocampal slice culture; type: in vitro ADME; settings: 3-day incubation in the culture media
Protocol: as §1

[8] = Metabolic profiling of 14C-3APS in mice; type: in vivo, male CD-1 mice; settings: Mouse plasma
Protocol: as §2

[9] = Rat plasma, analyte after single oral 100 mg/kg 14C-3APS
[10] = male, Sprague-Dawley, rat, plasma, po, 100 mg/kg, Rat plasma, analyte after single oral 100 mg/kg 14C-3APS
[11] = analyte after single oral 100 mg/kg 14C-3APS
[12] = male, CD-1, mouse, plasma, po, 100 mg/kg, analyte after single oral 100 mg/kg 14C-3APS

- in vitro metabolism [1]: no in vitro metabolism
- % of total radioactivity (AUC0-∞ analyte/AUC total radioactivity) ([2]; IV, Mean): 89%
- % of total radioactivity (AUC0-∞ analyte/AUC total radioactivity) ([2]; PO, Mean): about 68%
- AUC(0-inf) ([2]; iv, Mean): 1420 µM·h
- AUC(0-inf) ([2]; iv, individual animals 1001-1004): 1530 µM·h
- AUC(0-inf) ([2]; po, Mean): 507 µM·h
- AUC(0-inf) ([2]; po, individual animals 3001-3004): 610 µM·h
- formation of 2-carboxyethanesulfonic acid (human hepatocyte (HepG2)): detected
- % of total radioactivity in plasma based on AUC0-τ ([3]; healthy subjects, oral 14C-3APS): approximately 48%
- % of total amount of radioactivity excreted in urine ([3]; human urine): approximately 15%
- AUC0-τ [4, 9]: 26.7 µmol·min/mL
- AUC∞ [4, 9]: 27.6 µmol·min/mL
- T1/2 ([4]; Rat plasma, analyte after single oral 100 mg/kg 14C-3APS, 100 mg/kg): 6.43 h
- % of Total Radioactivity, Urine ([4]; Rat, amount excreted, single oral 100 mg/kg 14C-3APS): 59%
- Tmax [4, 10]: ~0.5 h
- half-life [4, 10]: ~6 h
- Cmax ([4]; male, Sprague-Dawley, Rat plasma, analyte (3APS or metabolite) after single oral 100 mg/kg 14C-3APS): 218 µM
- metabolism of 3APS associated with hepatic first-pass ([5]; hepatoportal versus intravenous exposure, 250 mg/kg): 24%
- bioavailability based on the AUC∞ ([5]; oral 250 mg/kg): about 38%
- metabolism of 3APS associated with intestinal first-pass ([5]; oral versus hepatoportal exposure, 250 mg/kg): 43%
- Brain AUC ([6]; 3-APS analysed): BLLQ
- Brain Cmax ([6]; 3-APS analysed): BLLQ
- Brain concentration of 3-APS [6]: could not be quantified
- 3APS converted to 2-carboxyethanesulfonic acid [7]: More than 60%
- AUC0-τ [8, 11]: 15.5 µmol·min/mL
- AUC∞ [8, 11]: 15.7 µmol·min/mL
- Tmax [8, 12]: ~0.5 h
- half-life [8, 12]: ~2 h
- Cmax ([8]; male, CD-1, analyte (3APS or metabolite) after single oral 100 mg/kg 14C-3APS): 97.7 µM
Structure (SMILES): NCCCS(=O)(=O)O [Compound 3APS, 3-amino-1-propanesulfonic acid]
- AUC0-∞ ([2]; IV, individual animals 1001-1004): 1420 µM·h and 1591 µM·h and 1147 µM·h
- AUC0-∞ ([2]; PO, individual animals 3001-3004): 539 µM·h and 407 µM·h and 471 µM·h
